# Literature values in patent US20240350500A1, “PLK1 INHIBITOR IN COMBINATION WITH ANTI-ANGIOGENICS FOR TREATING METASTATIC CANCER” (CARDIFF ONCOLOGY, INC., priority 2022, published 2024).
# Read-outs that look alike come from different tables or passages of the source.
# Tests used:
# [1] = system: metastatic colorectal cancer; conditions: 2nd line
# [2] = system: AML; conditions: combination with LDAC
# [3] = system: AML; conditions: intravenously in combination with LDAC, compared with LDAC alone; treatment naïve AML unsuitable for induction therapy
# [4] = rodent and nonrodent species
# [5] = system: disseminated models of AML; conditions: in combination with cytarabine
# [6] = system: AML cell lines
# [7] = system: xenograft models of AML
# [8] = target: PLK1 (Homo sapiens, UniProt P53350); conditions: including other PLK members
# PLK1, sequence (P53350 whole entry): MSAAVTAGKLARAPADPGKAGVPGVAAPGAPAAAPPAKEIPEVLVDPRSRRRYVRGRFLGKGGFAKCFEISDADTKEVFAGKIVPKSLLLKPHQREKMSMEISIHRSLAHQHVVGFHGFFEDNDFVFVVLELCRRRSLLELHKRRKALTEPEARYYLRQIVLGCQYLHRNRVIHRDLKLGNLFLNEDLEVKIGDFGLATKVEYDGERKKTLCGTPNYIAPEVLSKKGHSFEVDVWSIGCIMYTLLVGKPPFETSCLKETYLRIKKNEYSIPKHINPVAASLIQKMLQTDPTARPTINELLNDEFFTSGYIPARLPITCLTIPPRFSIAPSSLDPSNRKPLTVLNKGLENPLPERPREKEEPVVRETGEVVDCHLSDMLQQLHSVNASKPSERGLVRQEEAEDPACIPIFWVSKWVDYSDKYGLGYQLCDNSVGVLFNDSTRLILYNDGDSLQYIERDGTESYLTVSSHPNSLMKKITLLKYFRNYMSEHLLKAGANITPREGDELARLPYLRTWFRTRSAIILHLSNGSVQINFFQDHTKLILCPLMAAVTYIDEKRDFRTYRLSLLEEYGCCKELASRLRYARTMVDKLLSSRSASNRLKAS
# [9] = system: HT29 human colon adenocarcinoma xenografts; conditions: in combination with irinotecan, compared to each agent alone
# [10] = system: cell lines, both from solid as well as hematologic tumors
# [11] = bev naïve (without prior bevacizumab)
compound,measurement,setting,value
"bevacizumab: anti-angiogenics (angiogenesis inhibitor), Avastin",mOS,[1]; [11],13.9 months
same,mPFS,[1]; [11],6.9 months
same,mOS,[1]; patients with prior bev,12.5 months
same,mPFS,[1]; patients with prior bev,6.7 months
CC[C@@H]1C(=O)N(C)c2cnc(Nc3ccc(C(=O)N[C@H]4CC[C@H](N5CCN(CC6CC6)CC5)CC4)cc3OC)nc2N1C(C)C [volasertib],benefit of the combination,[2],no benefit
same,risk of severe infections,[2],increased risk of severe infections
same,OS,[3],significant increase in OS
"CN1CCN(c2ccc(OC(F)(F)F)c(Nc3ncc4c(n3)-c3c(c(C(N)=O)nn3CCO)CC4)c2)CC1 [onvansertib, 1-(2-hydroxyethyl)-8-{[5-(4-methylpiperazin-1-yl)-2-(trifluoromethoxy)phenyl]amino}-4,5-dihydro-1H-pyrazolo[4,3-h]quinazoline-3-carboxamide]",oral bioavailability,[4],good oral bioavailability
same,primary dose-limiting toxicities,patients with advanced/metastatic solid tumors,neutropenia and thrombocytopenia
same,time to recovery from hematologic toxicities,reversible,≤ 3 weeks
same,effect on cytarabine antitumor activity,[5],significantly increased cytarabine antitumor activity
same,inhibition of cell proliferation,[6],inhibited cell proliferation at nanomolar concentrations
same,tumor growth,[7],inhibited
same,specificity for PLK1 among a panel of 296 kinases,[8],high specificity
same,tumor regression,[9],enhanced tumor regression
same,cell-cycle effect,[10]; cancer cell lines,mitotic cell-cycle arrest followed by apoptosis
same,potency in proliferation assays,[10]; large number of cell lines,low nanomolar activity
